Experimental data published in patent publication US10106515B2, “1-(cyclopent-2-en-1-yl)-3-(2-hydroxy-3-(arylsulfonyl)phenyl)urea derivatives as CXCR2 inhibitors” (GLAXOSMITHKLINE INTELLECTUAL PROPERTY DEVELOPMENT LIMITED, priority 2014, dated 2018).

What was measured:
[1] = tested on: upregulation of CD11b in GROα stimulated neutrophils in human whole blood; assay: Human whole blood assay (CD11b upregulation); assay type: cell-based; details: Homo sapiens, Neutrophil, inhibition of CD11b upregulation, GROα 33 nM final, flow cytometry, read-out: pIC50 (human whole blood assay) (converted)
Summary of the method: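 Heparinised human whole blood preincubated 15 min at 37 °C with compound (10-point, 1:3 dilutions), then stimulated with 33 nM final GROα for 15 min at 37 °C. CD11b-FITC/CD16-PE staining on ice, lysis/fixation, flow cytometry; neutrophils gated by side scatter and CD16.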

[2] = tested on: Rat oligodendrocyte precursor cells (OPCs); assay: OPC differentiation assay; assay type: cell-based; details: percentage of MBP+ cells
Method: In the oligodendrocyte precursor cell (OPC) in vitro differentiation assay, purified or enriched OPCs are cultured and differentiated into immature oligodendrocytes, mature oligodendrocytes, and myelinating oligodendrocytes (Watkins et al. (2008) Neuron 60:555-569). Specific markers have been identified for each specific stage of OPC differentiation. Myelin basic proteins (MBP), a specific marker for matured and myelinating oligodendrocytes, is used as an indicator for OPC differentiation and maturation (Franklin et al. (2008) J Neurosci, 255 Suppl 1:19-25). The OPC differentiation assay provides a tool to screen the compounds with the potency of promoting OPC differentiation, which is an initial step for downstream remyelination repair in vivo after demyelination occurs in mutiple scelerosis (MS) patients.
Rat oligodendrocyte precursor cells (OPCs) were obtained from P1 pups and were cultured in DMEM/20S medium (DMEM with 20% FBS, 4 mM L-Glutamine, 1 mM sodium pyruvate and penicillin) (Zhang et al. (2007) Nature Protocol 2 (5):1044). […] The plate was read on Cellomics (SN: 04080019LH; P/N no 1-0117) using target activation protocol to calculate the percentage of MBP+ cells to reflect the differentiation of OPCs.

IC50 [1]: 0.0398 µM | IC50 ([2]; Oligodendrocyte precursor cell, read-out: pIC50 (OPC differentiation assay) (converted)): 6.31 µM
SMILES: CC1=CCC[C@H]1NC(=O)Nc1ccc(Cl)c(S(=O)(=O)[C@@]2(C)CCOC2)c1O [Compound 195, 1-(4-chloro-2-hydroxy-3-(((S)-3-methyltetrahydrofuran-3-yl)sulfonyl)phenyl)-3-((R)-2-methylcyclopent-2-en-1-yl)urea]
OPC differentiation [2]: promote OPC differentiation
